Assay results: paper PMC12169615, “Fluorescent 4‑Nitrobenzo-2-oxa-1,3-diazole-Coupled Bile Acids as Probe Substrates of Hepatic and Intestinal Bile Acid Transporters of the Solute Carrier Families SLC10 and SLCO” (Journal of Medicinal Chemistry, 2025)
Where “and” joins values, the source holds several entries; their conditions need not be identical. Equal values may be shown once.

Tests used:
mouse mAsbt = molecular target: T1, mouse mAsbt (Mus musculus, UniProt P70172); test: Quantitative uptake of 3-NBD-BA in carrier-expressing HEK293 cells (fluorescence reader); format: cell-based; set-up: stably transfected with the full open reading frames of human NTCP, ASBT, SOAT, OATP1B1, and OATP1B3 as well as mouse mNtcp and mAsbt; expressed in transfected cells; conditions: mAsbt-HEK293, 25 μM, 37 °C, +Na+ vs -Na+
T1 sequence (P70172 1-348): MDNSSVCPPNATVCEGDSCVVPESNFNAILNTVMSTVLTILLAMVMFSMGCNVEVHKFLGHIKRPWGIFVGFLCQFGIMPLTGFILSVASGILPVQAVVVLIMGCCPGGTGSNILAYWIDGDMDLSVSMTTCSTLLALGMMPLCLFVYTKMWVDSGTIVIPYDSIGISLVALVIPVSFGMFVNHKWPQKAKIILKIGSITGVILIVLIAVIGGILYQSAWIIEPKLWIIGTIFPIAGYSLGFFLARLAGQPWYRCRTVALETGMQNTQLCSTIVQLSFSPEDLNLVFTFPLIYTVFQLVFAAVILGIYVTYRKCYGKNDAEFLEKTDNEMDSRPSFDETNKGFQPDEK
Procedure: (§1) For quantification of the transport activity of the synthesized NBD-BA, all cell lines were seeded on 96 well plates and transport experiments were performed under the same control conditions (-Na^+ control for the SLC10 carriers and nontransfected HEK293 cells for the OATP carriers) as before (Figure ). For each NBD-BA, a substrate concentration of 25 μM was used, and the uptake phase was terminated after 10 min of incubation at 37 °C. […] The transport ratios ranged from 3-fold to 39-fold. In direct comparison, 3α-NBD-TCA (14d) and 3α-NBD-GCA (16d) were transported better than their 3β-analogs 3β-NBD-TCA (14a) and 3β-NBD-GCA (16a), respectively, clearly pointing to a preference for the α-position over the β-position of the 3-NBD-label. In direct comparison between the taurine- or glycine-conjugation of the respective NBD-BA, there was a clear preference for 3α-NBD-GCA (16d) over 3α-NBD-TCA (14d), at least for NTCP and mAsbt, pointing to a favorable substrate recognition for glycine-conjugated NBD-BA.
(§2) 5 Quantitative uptake experiments with the 3-NBD-BA in HEK293 cells stably expressing the human carriers NTCP, ASBT, SOAT, OATP1B1, and OATP1B3, or the mouse carriers mNtcp and mAsbt. For the SLC10 carriers, all transport experiments were performed in the presence (filled bars) and the absence (hatched bars) of sodium. For the OATP carriers, uptake into carrier-expressing cells (filled bars) was compared to uptake into non-carrier-expressing HEK293 cells (hatched bars). All cell lines were incubated at 37 °C for 10 min with the indicated 3-NBD-BA at 25 μM. Then, cells were washed with PBS and subjected to fluorescence detection. The following fluorescent BA were analyzed: 3α-NBD-TCA (14d), 3β-NBD-TCA (14a), 3α-NBD-GCA (16d), 3β-NBD-GCA (16a), 3β-NBD-TCDCA (14b), 3β-NBD-CDCA (6b), 3β-NBD-DCA (6c), 3α-NBD-CA (6d), and 3β-NBD-CA (6a). Data represent means ± SD of triplicate determinations of representative experiments. […] RFU, relative fluorescence units. TEXT PRINTED IN THE PICTURE: 3α-NBD-TCA (14d): NTCP: 9 X; mNtcp: 30 X; ASBT: 2 X; mAsbt: 14 X | 3ß-NBD-TCA (14a): NTCP: 12 X; mNtcp: 20 X; mAsbt: 18 X | 3α-NBD-GCA (16d): NTCP: 27 X; mNtcp: 26 X; ASBT: 3 X; mAsbt: 39 X | 3ß-NBD-GCA (16a): NTCP: 15 X; mNtcp: 14 X; mAsbt: 5 X | 3ß-NBD-TCDCA (14b): NTCP: 5 X; mNtcp: 3 X; mAsbt: 4 X | 3ß-NBD-CDCA (6b): mNtcp: < 2 X; ASBT: < 2 X; mAsbt: < 2 X; OATP1B1: < 2 X; OATP1B3: < 2 X | 3ß-NBD-DCA (6c): mNtcp: < 2 X; ASBT: < 2 X; mAsbt: < 2 X | 3α-NBD-CA (6d): mNtcp: 2 X; mAsbt: 4 X | 3ß-NBD-CA (6a): NTCP: 2 X; mNtcp: 2 X; mAsbt: 2 X DOUBTS OF THE COPYIST ABOUT THIS PICTURE: The picture prints no panel letters, so the chart titles (NTCP, mNtcp, ASBT, mAsbt, OATP1B1, OATP1B3) are written in front of the values as the target. / Substance labels: the sign after '3' is printed like 'ß' and may be meant as 'β'. / The 'ns' marks and significance asterisks were left out as statistics. The SOAT chart prints only 'ns'.

mouse mNtcp = molecular target: T2, mouse mNtcp (Mus musculus, UniProt O08705); test: as above; format: cell-based; conditions: mNtcp-HEK293, 25 μM, 37 °C, +Na+ vs -Na+
T2 construct: stably transfected with the full open reading frames of human NTCP, ASBT, SOAT, OATP1B1, and OATP1B3 as well as mouse mNtcp and mAsbt; expressed in transfected cells
T2 sequence (O08705 1-362): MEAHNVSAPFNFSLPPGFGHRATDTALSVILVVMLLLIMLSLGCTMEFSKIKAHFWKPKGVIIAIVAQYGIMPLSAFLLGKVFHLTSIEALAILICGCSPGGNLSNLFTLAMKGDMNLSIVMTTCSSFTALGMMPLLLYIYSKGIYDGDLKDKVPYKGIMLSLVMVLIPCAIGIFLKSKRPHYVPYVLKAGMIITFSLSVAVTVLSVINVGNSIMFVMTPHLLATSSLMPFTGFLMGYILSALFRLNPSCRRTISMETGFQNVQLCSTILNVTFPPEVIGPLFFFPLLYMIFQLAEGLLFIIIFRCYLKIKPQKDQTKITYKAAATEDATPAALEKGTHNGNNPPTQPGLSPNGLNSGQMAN
Procedure: as §1, §2

Row | Compound | Specific transport ratio mAsbt (25µM/10 min uptake) (mouse mAsbt) | Specific transport ratio mNtcp (25µM/10 min uptake) (mouse mNtcp)
1 | 7α-Hydroxy-3β-[(7-nitro-2,1,3-benzoxadiazol-4-yl)amino]-5β-cholan-24-oate [6b] | <2x x-fold | <2x x-fold
2 | 12α-Hydroxy-3β-[(7-nitro-2,1,3-benzoxadiazol-4-yl)amino]-5β-cholan-24-oate [6c] | <2x x-fold | <2x x-fold
3 | C[C@H](CCC(=O)O)[C@H]1CC[C@H]2[C@@H]3[C@H](O)C[C@@H]4C[C@@H](Nc5ccc([N+](=O)[O-])c6nonc56)CC[C@]4(C)[C@H]3C[C@H](O)[C@]12C [6a, 7α,12α-Dihydroxy-3β-[(7-nitro-2,1,3-benzoxadiazol-4-yl)amino]-5β-cholan-24-oate] | 2 x-fold and 2x x-fold | 2 x-fold and 2x x-fold
4 | C[C@H](CCC(=O)O)[C@H]1CC[C@H]2[C@@H]3[C@H](O)C[C@@H]4C[C@H](Nc5ccc([N+](=O)[O-])c6nonc56)CC[C@]4(C)[C@H]3C[C@H](O)[C@]12C [6d, 7α,12α-Dihydroxy-3α-[(7-nitro-2,1,3-benzoxadiazol-4-yl)amino]-5β-cholan-24-oate] | 4 x-fold and 4x x-fold | 2 x-fold and 2x x-fold
5 | C[C@H](CCC(=O)NCCS(=O)(=O)[O-])[C@H]1CC[C@H]2[C@@H]3[C@H](O)C[C@@H]4C[C@@H](Nc5ccc([N+](=O)[O-])c6nonc56)CC[C@]4(C)[C@H]3C[C@H](O)[C@]12C.[Na+] [14a] | 18x x-fold | 20x x-fold
6 | C[C@H](CCC(=O)NCCS(=O)(=O)[O-])[C@H]1CC[C@H]2[C@@H]3[C@H](O)C[C@@H]4C[C@H](Nc5ccc([N+](=O)[O-])c6nonc56)CC[C@]4(C)[C@H]3C[C@H](O)[C@]12C.[Na+] [14d] | 14x x-fold | 30x x-fold
7 | C[C@H](CCC(=O)NCC(=O)O)[C@H]1CC[C@H]2[C@@H]3[C@H](O)C[C@@H]4C[C@@H](Nc5ccc([N+](=O)[O-])c6nonc56)CC[C@]4(C)[C@H]3C[C@H](O)[C@]12C [16a] | 5x x-fold | 14x x-fold
8 | C[C@H](CCC(=O)NCC(=O)O)[C@H]1CC[C@H]2[C@@H]3[C@H](O)C[C@@H]4C[C@H](Nc5ccc([N+](=O)[O-])c6nonc56)CC[C@]4(C)[C@H]3C[C@H](O)[C@]12C [16d] | 39x x-fold | 26x x-fold
